Measured values: patent publication US20210395217A1, “PESTICIDALLY ACTIVE AZOLE-AMIDE COMPOUNDS” (SYNGENTA PARTICIPATIONS AG, priority 2018, published 2021)

Key:
Assay type in all cases: in vivo
[1] = tested on: Spodoptera littoralis; assay: Example B7: Spodoptera littoralis (Egyptian cotton leaf worm), cotton leaf discs sprayed, L1 larvae; conditions: foliar, 72 h, application rate of 200 ppm, 3 days after infestation, read-out: control in at least one of the three categories (mortality, anti-feedant effect, or growth inhibition)
Method: Example B7: Spodoptera littoralis (Egyptian Cotton Leaf Worm)
Cotton leaf discs were placed onto agar in 24-well microtiter plates and sprayed with aqueous test solutions prepared from 10′000 ppm DMSO stock solutions. After drying the leaf discs were infested with five L1 larvae. The samples were assessed for mortality, anti-feeding effect, and growth inhibition in comparison to untreated samples 3 days after infestation. Control of Spodoptera littoralis by a test sample is given when at least one of the categories mortality, anti-feedant effect, and growth inhibition is higher than the untreated sample.

[2] = tested on: Plutella xylostella; assay: Example B4: Plutella xylostella (diamond back moth), artificial diet, 24-well, eggs; conditions: 192 h, application rate of 200 ppm, 8 days after infestation, 24-well plates, read-out: control in at least one of the two categories (mortality or growth inhibition)
Method: Example B4: Plutella xylostella (Diamond Back Moth)
24-well microtiter plates with artificial diet were treated with aqueous test solutions prepared from 10′000 ppm DMSO stock solutions by pipetting. After drying, Plutella eggs were pipetted through a plastic stencil onto a gel blotting paper and the plate was closed with it. The samples were assessed for mortality and growth inhibition in comparison to untreated samples 8 days after infestation. The following compounds gave an effect of at least 80% control in at least one of the two categories (mortality or growth inhibition) at an application rate of 200 ppm: […]

[3] = tested on: Chilo suppressalis; assay: Example B3: Chilo suppressalis (striped rice stem borer), artificial diet, L2 larvae; conditions: 144 h, application rate of 200 ppm, 6 days after infestation, read-out: control in at least one of the three categories (mortality, anti-feedant effect, or growth inhibition)
Method: Example B3: Chilo suppressalis (Striped Rice Stem Borer)
24-well microtiter plates with artificial diet were treated with aqueous test solutions prepared from 10′000 ppm DMSO stock solutions by pipetting. After drying, the plates were infested with L2 larvae (6-8 per well). The samples were assessed for mortality, anti-feeding effect, and growth inhibition in comparison to untreated samples 6 days after infestation. Control of Chilo suppressalis by a test sample is given when at least one of the categories mortality, anti-feedant effect, and growth inhibition is higher than the untreated sample.

[4] = tested on: Diabrotica balteata; assay: Example B1: Diabrotica balteata (corn root worm), maize sprouts sprayed, L2 larvae; conditions: 96 h, application rate of 200 ppm, 4 days after infestation, read-out: control in at least one of the two categories (mortality or growth inhibition)
Method: Example B1: Diabrotica balteata (Corn Root Worm)
Maize sprouts placed onto an agar layer in 24-well microtiter plates were treated with aqueous test solutions prepared from 10′000 ppm DMSO stock solutions by spraying. After drying, the plates were infested with L2 larvae (6 to 10 per well). The samples were assessed for mortality and growth inhibition in comparison to untreated samples 4 days after infestation.
The following compounds gave an effect of at least 80% control in at least one of the two categories (mortality or growth inhibition) at an application rate of 200 ppm: […]

[5] = tested on: Plutella xylostella; assay: Example B10: Plutella xylostella (diamondback moth), artificial diet, 96-well, eggs; conditions: 216 h, application rate of 500 ppm, 9 days after infestation, 96-well plates
Method: Example B10: Plutella xylostella (Diamondback Moth)
96-well microtiter plates containing artificial diet were treated with aqueous test solutions, prepared from 10′000 ppm DMSO stock solutions, by a liquid handling robot. After drying, eggs (˜30 per well) were infested onto a netted lid which was suspended above the diet. The eggs hatch and L1 larvae move down to the diet. The samples were assessed for mortality 9 days after infestation.
The following compounds gave an effect of at least 80% average mortality at an application rate of 500 ppm: […]

CC(NC(=O)c1cc(Cl)cc(Cl)c1)c1ncnn1-c1ccc(C#N)cn1 (stereo not shown) [Compound F22, 3,5-dichloro-N-[1-[2-(5-cyano-2-pyridyl)-1,2,4-triazol-3-yl]ethyl]benzamide]
≥ 80%: percent control (mortality, anti-feedant effect or growth inhibition) at 200 ppm [1] | percent control (mortality or growth inhibition) at 200 ppm [2] | percent control (mortality, anti-feedant effect or growth inhibition) at 200 ppm [3] | percent control (mortality or growth inhibition) at 200 ppm [4]

Cc1nc(C(C)NC(=O)c2cc(C(F)(F)F)cc(C(F)(F)F)c2)n(-c2ccc(C#N)cn2)n1 (stereo not shown) [Compound F7, N-[1-[2-(5-cyano-2-pyridyl)-5-methyl-1,2,4-triazol-3-yl]ethyl]-3,5-bis (trifluoromethyl) benzamide]
≥ 80%: percent control (mortality, anti-feedant effect or growth inhibition) at 200 ppm [1] | percent control (mortality or growth inhibition) at 200 ppm [2] | percent control (mortality or growth inhibition) at 200 ppm [4]

CC(NC(=O)c1cc(Br)cc(OCC(F)(F)F)c1)c1ncnn1-c1ccc(C#N)cn1 (stereo not shown) [Compound F19, 3-bromo-N-[1-[2-(5-cyano-2-pyridyl)-1,2,4-triazol-3-yl]ethyl]-5-(2,2,2-trifluoroethoxy) benzamide]
≥ 80%: percent control (mortality, anti-feedant effect or growth inhibition) at 200 ppm [1] | percent control (mortality or growth inhibition) at 200 ppm [2] | percent control (mortality, anti-feedant effect or growth inhibition) at 200 ppm [3] | mortality at 500 ppm [5]

CC(NC(=O)c1cc(Br)cc(C(F)(F)F)c1)c1ncnn1-c1ccc(C#N)cn1 (stereo not shown) [Compound F14, 3-bromo-N-[1-[2-(5-cyano-2-pyridyl)-1,2,4-triazol-3-yl]ethyl]-5-(trifluoromethyl) benzamide]
≥ 80%: percent control (mortality, anti-feedant effect or growth inhibition) at 200 ppm [1] | percent control (mortality or growth inhibition) at 200 ppm [2] | percent control (mortality or growth inhibition) at 200 ppm [4]

CC(NC(=O)c1cc(C(F)F)cc(C(F)(F)F)c1)c1ncnn1-c1ccc(C#N)cn1 (stereo not shown) [Compound F15, N-[1-[2-(5-cyano-2-pyridyl)-1,2,4-triazol-3-yl]ethyl]-3-(difluoromethyl)-5-(trifluoromethyl) benzamide]
≥ 80%: percent control (mortality, anti-feedant effect or growth inhibition) at 200 ppm [1] | percent control (mortality or growth inhibition) at 200 ppm [2] | percent control (mortality, anti-feedant effect or growth inhibition) at 200 ppm [3] | percent control (mortality or growth inhibition) at 200 ppm [4]

CC(NC(=O)c1cc(OC(F)F)cc(C(F)(F)F)c1)c1ncnn1-c1ccc(C#N)cn1 (stereo not shown) [Compound F13, N-[1-[2-(5-cyano-2-pyridyl)-1,2,4-triazol-3-yl]ethyl]-3-(difluoromethoxy)-5-(trifluoromethyl) benzamide]
≥ 80%: percent control (mortality, anti-feedant effect or growth inhibition) at 200 ppm [1] | percent control (mortality or growth inhibition) at 200 ppm [2] | percent control (mortality or growth inhibition) at 200 ppm [4]

CC(NC(=O)c1cc(Cl)cc(Br)c1)c1ncnn1-c1ccc(C#N)cn1 (stereo not shown) [Compound F23, 3-bromo-5-chloro-N-[1-[2-(5-cyano-2-pyridyl)-1,2,4-triazol-3-yl]ethyl]benzamide]
≥ 80%: percent control (mortality, anti-feedant effect or growth inhibition) at 200 ppm [1] | percent control (mortality or growth inhibition) at 200 ppm [2] | percent control (mortality or growth inhibition) at 200 ppm [4]

CC(NC(=O)c1cc(Br)cc(OCC(F)F)c1)c1ncnn1-c1ccc(C#N)cn1 (stereo not shown) [Compound F20, 3-bromo-N-[1-[2-(5-cyano-2-pyridyl)-1,2,4-triazol-3-yl]ethyl]-5-(2,2-difluoroethoxy) benzamide]
≥ 80%: percent control (mortality, anti-feedant effect or growth inhibition) at 200 ppm [1] | percent control (mortality or growth inhibition) at 200 ppm [2] | percent control (mortality, anti-feedant effect or growth inhibition) at 200 ppm [3] | mortality at 500 ppm [5]
